“Also recorded” adds a separate entry of the source.

Consider five molecules from patent US20110046018A1, “SERS-BASED, SINGLE STEP, REAL-TIME DETECTION OF PROTEIN KINASE AND/OR PHOSPHATASE ACTIVITY” (priority 2007, published 2011).

The target in data set [1] is Src kinase (Homo sapiens, UniProt P12931). Nature of the data set: SERS peptide-conjugated nanoprobe assay of Src kinase inhibition. It is filed as biochemical. The settings on record: with increasing concentration of inhibitor. As to the method: Src kinase SERS probes were tested and calibrated using purified p60 cellular Src kinase first. The real time peptide SERS spectra were recorded in the reaction with 10 nM Src kinase at 37° C. […] The phosphorylation level was defined as the normalized ratio of peak intensities between 1004 cm^−1 and 1260 cm^−1. […] The real time phosphorylation level in the reactions was characterized with various concentrations of Src kinase. […] The reaction constants of the Src kinase at different concentration can be calculated using the Michaelis-Maten model.
Different Src kinase inhibitors were tested using the peptide-conjugated nanoprobe assay. The phosphorylation level of the Src kinase with the addition of the inhibitors PP2, PP3 and SU5656 was tested. […] The IC50 concentrations for the three inhibitors were characterized respectively.
A microscopy system with Raman spectrometer was used to acquire Raman scattering spectra from single nanocrescents. […] A 785 nm semiconductor laser was used in our experiments as the excitation source of Raman scattering, and the laser beam was focused by a 40× objective lens on the nanocrescent. The excitation power was measured by a photometer (Newport, Calif.) to be ˜0.8 mW. The Raman scattering light was then collected through the same optical pathway through a long-pass filter and analyzed by the spectrometer.

Data set [2] concerns substrate peptide for Src kinase (SEQ ID NO:1).
Data set [3] addresses substrate peptide for Src kinase (SEQ ID NO:1). The experiment in a line: cell-based or functional assay.

Sequence of Src kinase (P12931 whole entry): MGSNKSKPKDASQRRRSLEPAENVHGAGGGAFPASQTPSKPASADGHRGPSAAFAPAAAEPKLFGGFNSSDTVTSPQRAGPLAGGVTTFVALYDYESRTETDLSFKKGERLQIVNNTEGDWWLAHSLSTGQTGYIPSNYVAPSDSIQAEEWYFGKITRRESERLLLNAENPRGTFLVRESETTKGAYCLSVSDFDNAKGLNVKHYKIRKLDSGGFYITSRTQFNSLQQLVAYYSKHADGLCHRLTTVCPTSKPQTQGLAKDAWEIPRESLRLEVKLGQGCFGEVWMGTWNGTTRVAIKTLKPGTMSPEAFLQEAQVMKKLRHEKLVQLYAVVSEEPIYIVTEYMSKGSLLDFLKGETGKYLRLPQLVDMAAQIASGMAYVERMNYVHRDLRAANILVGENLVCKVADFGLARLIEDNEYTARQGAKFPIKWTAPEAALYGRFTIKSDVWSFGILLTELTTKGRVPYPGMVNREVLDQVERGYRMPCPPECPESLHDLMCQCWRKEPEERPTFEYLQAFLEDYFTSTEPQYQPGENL

With `CC(C)(C)n1nc(-c2ccc(Cl)cc2)c2c(N)ncnc21` [PP2], in data set [1], the “phosphorylation level of the Src kinase with the addition of the inhibitors” value (from here on “phosphorylation level … of the inhibitors”) was “decreases significantly”.
Regarding `Nc1ncnc2c1cnn2-c1ccccc1` [PP3], the “phosphorylation level … of the inhibitors” value in data set [1] is recorded as “decreases significantly”.
Regarding purified p60 cellular Src kinase, in data set [2], the “minimal detectable concentration of Src kinase (SERS phosphorylation assay)” value was “the minimal detectable concentration is above 10 pM”; the “phosphorylation level (normalized ratio of peak intensities between 1004 cm^-1 and 1260 cm^-1, SERS)” value is reported as “increased more than 6-fold after the reactions with 10 nM Src kinase; also recorded: The phosphorylation level saturated at around 7 for high concentration of Src kinase”.
Regarding `CN(C)S(=O)(=O)c1ccc2c(c1)/C(=C/c1cc3c([nH]1)CCCC3)C(=O)N2` [SU5656], in data set [1], the “phosphorylation level … of the inhibitors” value is on record as “decreases significantly”.
In data set [3], “virus Src protein (in crude lysate of transfected 3T9 mouse fibroblast cells) (enzyme)” returned a phosphorylation level (SERS, crude cell lysate) of 3 times.
